These results are taken from publication PMC3106419 (Bioconjugate chemistry, 2009).

The test addresses T1, human P2Y14 receptor (Homo sapiens, UniProt Q15391).
T1 sequence (Q15391 1-338): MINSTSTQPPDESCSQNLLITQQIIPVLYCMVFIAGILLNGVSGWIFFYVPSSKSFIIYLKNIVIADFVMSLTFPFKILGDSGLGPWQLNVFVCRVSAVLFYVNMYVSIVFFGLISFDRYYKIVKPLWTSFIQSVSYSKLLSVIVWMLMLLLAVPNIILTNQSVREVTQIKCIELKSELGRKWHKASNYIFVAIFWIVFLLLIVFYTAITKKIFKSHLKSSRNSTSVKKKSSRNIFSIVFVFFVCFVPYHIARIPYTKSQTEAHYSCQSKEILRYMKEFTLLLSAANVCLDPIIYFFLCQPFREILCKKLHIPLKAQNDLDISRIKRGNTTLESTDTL
Kind of test: Inhibition of forskolin-stimulated cyclic AMP accumulation in P2Y14-HEK293 cells. Particulars: for relative potency at the P2Y14 receptor: comparator named in the value; for fold more potent than monomer 3a: potency ratio vs ethylenediamine analogue 3a at hP2Y14 receptor; for fold more potent than native agonist UDPG 1: potency ratio vs compound 1 at hP2Y14 receptor. The class given is cell-based.

On to `O=C(O)[C@H]1O[C@H](OP(=O)(O)OP(=O)(O)OC[C@H]2O[C@@H](n3ccc(=O)[nH]c3=O)[C@H](O)[C@@H]2O)[C@H](O)[C@@H](O)[C@@H]1O` [compound 2, uridine-5′-diphosphoglucuronic acid, reference compound], for which the “relative potency at the P2Y14 receptor” value is recorded as “approximately equipotent to 1”.
For “G2.5-(UDPGA-ethylenediamine)17.3 [compound 10]”, the “fold more potent than monomer 3a” value was “more than 800 fold”.
Consider G3-(UDPGA)4.3 [compound 8], for which the “relative potency at the P2Y14 receptor” value was “considerably less potent than 9, but similar in potency to 1”.
Regarding G3-(UDPGA)20.1 [compound 9], the “fold more potent than native agonist UDPG 1” value was “approximately 100 fold”.
For the molecule “G3-(UDPGA)20.1-(AlexaFluor488)2.3 [compound 14]”, the “fold more potent than native agonist UDPG 1” value is on record as 7 fold. Moreover, the “fold less potent than conjugate 9” value (potency ratio vs compound 9 at hP2Y14 receptor) is recorded as 17 fold.
On to “G3-(UDPGA)20.1-(Biotin)4.9 [compound 13]”, for which the “relative potency at the P2Y14 receptor” value is on record as “essentially as potent as 9”.
With G3-(UDPGA)20.1-(DTPA)4.5 [compound 15], the “relative potency at the P2Y14 receptor” value was “essentially as potent as 9”.
Regarding “G5.5-(UDPGA-ethylenediamine)29.9 [compound 11]”, the “fold more potent than monomer 3a” value is listed as “more than 800 fold”.
For G6-(UDPGA)147 [compound 12], the “relative potency at the P2Y14 receptor” value is “significantly more potent than 9”.
As to UDPGA-ethylenediamine [3a], the “relative potency at the P2Y14 receptor” value is reported as “considerably less potent”.
